# Measurements reported in PubChem BioAssay (NCI).
#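 Results reflect a 48-hour exposure of cells in 96-well plates to compound at five concentrations. At the GI50, growth is halved. At the TGI there is no net growth.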
# Columns and labels:
# Experiment in all cases: growth of human tumour cells (NCI), 48 h
# SF-539 CNS = tested on: SF-539 CNS
# COLO 205 colon = tested on: COLO 205 colon
# RPMI-8226 leukemia = tested on: RPMI-8226 leukemia
# T-47D breast = tested on: T-47D breast
# HCC-2998 colon = tested on: HCC-2998 colon
# UACC-62 melanoma = tested on: UACC-62 melanoma
# SNB-75 CNS = tested on: SNB-75 CNS
# RXF 393 renal = tested on: RXF 393 renal
# HOP-62 NSCLC = tested on: HOP-62 NSCLC
# HCT-15 colon = tested on: HCT-15 colon
# A498 renal = tested on: A498 renal
# NCI-H226 lung = tested on: NCI-H226 lung
# CAKI-1 renal = tested on: CAKI-1 renal
# NCI/ADR-RES ovarian = tested on: NCI/ADR-RES ovarian
# TK-10 renal = tested on: TK-10 renal
# SR leukemia = tested on: SR leukemia
# SNB-19 CNS = tested on: SNB-19 CNS
# NCI-H522 lung = tested on: NCI-H522 lung
# HL-60(TB) leukemia = tested on: HL-60(TB) leukemia
# PC-3 prostate = tested on: PC-3 prostate
# M14 melanoma = tested on: M14 melanoma
# K-562 leukemia = tested on: K-562 leukemia
# SW-620 colon = tested on: SW-620 colon
# UACC-257 melanoma = tested on: UACC-257 melanoma
# HS 578T breast = tested on: HS 578T breast
# 786-0 renal = tested on: 786-0 renal
# IGROV1 ovarian = tested on: IGROV1 ovarian
# UO-31 renal = tested on: UO-31 renal
# ACHN renal = tested on: ACHN renal
# DU-145 prostate = tested on: DU-145 prostate
# LOX IMVI melanoma = tested on: LOX IMVI melanoma
# SK-OV-3 ovarian = tested on: SK-OV-3 ovarian
# MDA-MB-435 = tested on: MDA-MB-435
# MDA-MB-231 breast = tested on: MDA-MB-231 breast
# MOLT-4 leukemia = tested on: MOLT-4 leukemia
# EKVX NSCLC = tested on: EKVX NSCLC
# OVCAR-8 ovarian = tested on: OVCAR-8 ovarian
# NCI-H460 lung = tested on: NCI-H460 lung
# OVCAR-5 ovarian = tested on: OVCAR-5 ovarian
# HOP-92 NSCLC = tested on: HOP-92 NSCLC
# HT29 colon = tested on: HT29 colon
# MDA-MB-468 breast = tested on: MDA-MB-468 breast
# U251 CNS = tested on: U251 CNS
# OVCAR-4 ovarian = tested on: OVCAR-4 ovarian
# SK-MEL-2 melanoma = tested on: SK-MEL-2 melanoma
# SF-295 CNS = tested on: SF-295 CNS
# MCF7 breast = tested on: MCF7 breast
# BT-549 breast = tested on: BT-549 breast
# OVCAR-3 ovarian = tested on: OVCAR-3 ovarian
# HCT-116 colon = tested on: HCT-116 colon
# NCI-H23 lung = tested on: NCI-H23 lung
# MALME-3M melanoma = tested on: MALME-3M melanoma
# CCRF-CEM leukemia = tested on: CCRF-CEM leukemia
# SF-268 CNS = tested on: SF-268 CNS
# SK-MEL-5 melanoma = tested on: SK-MEL-5 melanoma
# SN12C renal = tested on: SN12C renal
# SK-MEL-28 melanoma = tested on: SK-MEL-28 melanoma
# KM12 colon = tested on: KM12 colon
# A549 NSCLC = tested on: A549 NSCLC
compound,measurement,setting,value
CC(=O)N1CCN(Cc2ccc3c(NNC(=O)c4cnccn4)nc4cc(F)ccc4n23)CC1,GI50,SF-539 CNS,787 nM
same,TGI,SF-539 CNS,6040 nM
same,GI50,COLO 205 colon,436 nM
same,TGI,COLO 205 colon,11400 nM
same,GI50,RPMI-8226 leukemia,823 nM
same,TGI,RPMI-8226 leukemia,> 39700 nM
same,GI50,T-47D breast,1700 nM
same,TGI,T-47D breast,36800 nM
same,GI50,HCC-2998 colon,960 nM
same,TGI,HCC-2998 colon,19000 nM
same,GI50,UACC-62 melanoma,435 nM
same,TGI,UACC-62 melanoma,2210 nM
same,GI50,SNB-75 CNS,1390 nM
same,TGI,SNB-75 CNS,99300 nM
same,GI50,RXF 393 renal,1450 nM
same,TGI,RXF 393 renal,12400 nM
same,GI50,HOP-62 NSCLC,410 nM
same,TGI,HOP-62 NSCLC,23600 nM
same,GI50,HCT-15 colon,197 nM
same,TGI,HCT-15 colon,19000 nM
same,GI50,A498 renal,22700 nM
same,TGI,A498 renal,37800 nM
same,GI50,NCI-H226 lung,742 nM
same,TGI,NCI-H226 lung,11200 nM
same,GI50,CAKI-1 renal,477 nM
same,TGI,CAKI-1 renal,18800 nM
same,GI50,NCI/ADR-RES ovarian,1170 nM
same,TGI,NCI/ADR-RES ovarian,12300 nM
same,GI50,TK-10 renal,304 nM
same,TGI,TK-10 renal,45700 nM
same,GI50,SR leukemia,389 nM
same,TGI,SR leukemia,10700 nM
same,GI50,SNB-19 CNS,1200 nM
same,TGI,SNB-19 CNS,> 100000 nM
same,GI50,NCI-H522 lung,1260 nM
same,TGI,NCI-H522 lung,15700 nM
same,GI50,HL-60(TB) leukemia,461 nM
same,TGI,HL-60(TB) leukemia,4540 nM
same,GI50,PC-3 prostate,525 nM
same,TGI,PC-3 prostate,> 52400 nM
same,GI50,M14 melanoma,333 nM
same,TGI,M14 melanoma,2240 nM
same,GI50,K-562 leukemia,753 nM
same,TGI,K-562 leukemia,33500 nM
same,GI50,SW-620 colon,633 nM
same,TGI,SW-620 colon,> 63000 nM
same,GI50,UACC-257 melanoma,1680 nM
same,TGI,UACC-257 melanoma,10500 nM
same,GI50,HS 578T breast,13200 nM
same,TGI,HS 578T breast,> 100000 nM
same,GI50,786-0 renal,342 nM
same,TGI,786-0 renal,6550 nM
same,GI50,IGROV1 ovarian,784 nM
same,TGI,IGROV1 ovarian,> 52900 nM
same,GI50,UO-31 renal,163 nM
same,TGI,UO-31 renal,7660 nM
same,GI50,ACHN renal,311 nM
same,TGI,ACHN renal,12300 nM
same,GI50,DU-145 prostate,873 nM
same,TGI,DU-145 prostate,> 100000 nM
same,GI50,LOX IMVI melanoma,371 nM
same,TGI,LOX IMVI melanoma,3090 nM
same,GI50,SK-OV-3 ovarian,492 nM
same,TGI,SK-OV-3 ovarian,13700 nM
same,GI50,MDA-MB-435,1510 nM
same,TGI,MDA-MB-435,> 100000 nM
same,GI50,MDA-MB-231 breast,736 nM
same,TGI,MDA-MB-231 breast,25200 nM
same,GI50,MOLT-4 leukemia,387 nM
same,TGI,MOLT-4 leukemia,15500 nM
same,GI50,EKVX NSCLC,312 nM
same,TGI,EKVX NSCLC,10300 nM
same,GI50,OVCAR-8 ovarian,454 nM
same,TGI,OVCAR-8 ovarian,> 34100 nM
same,GI50,NCI-H460 lung,408 nM
same,TGI,NCI-H460 lung,> 36000 nM
same,GI50,OVCAR-5 ovarian,1090 nM
same,TGI,OVCAR-5 ovarian,24400 nM
same,GI50,HOP-92 NSCLC,331 nM
same,TGI,HOP-92 NSCLC,14600 nM
same,GI50,HT29 colon,501 nM
same,TGI,HT29 colon,21000 nM
same,GI50,MDA-MB-468 breast,525 nM
same,TGI,MDA-MB-468 breast,3390 nM
same,GI50,U251 CNS,505 nM
same,TGI,U251 CNS,48700 nM
same,GI50,OVCAR-4 ovarian,640 nM
same,TGI,OVCAR-4 ovarian,41700 nM
same,GI50,SK-MEL-2 melanoma,1280 nM
same,TGI,SK-MEL-2 melanoma,11400 nM
same,GI50,SF-295 CNS,290 nM
same,TGI,SF-295 CNS,29900 nM
same,GI50,MCF7 breast,898 nM
same,TGI,MCF7 breast,31200 nM
same,GI50,BT-549 breast,995 nM
same,TGI,BT-549 breast,19600 nM
same,GI50,OVCAR-3 ovarian,724 nM
same,TGI,OVCAR-3 ovarian,30500 nM
same,GI50,HCT-116 colon,309 nM
same,TGI,HCT-116 colon,18800 nM
same,GI50,NCI-H23 lung,909 nM
same,TGI,NCI-H23 lung,13200 nM
same,GI50,MALME-3M melanoma,1220 nM
same,TGI,MALME-3M melanoma,10900 nM
same,GI50,CCRF-CEM leukemia,374 nM
same,TGI,CCRF-CEM leukemia,10600 nM
same,GI50,SF-268 CNS,609 nM
same,TGI,SF-268 CNS,> 100000 nM
same,GI50,SK-MEL-5 melanoma,605 nM
same,TGI,SK-MEL-5 melanoma,4980 nM
same,GI50,SN12C renal,864 nM
same,TGI,SN12C renal,> 100000 nM
same,GI50,SK-MEL-28 melanoma,624 nM
same,TGI,SK-MEL-28 melanoma,31600 nM
same,GI50,KM12 colon,537 nM
same,TGI,KM12 colon,> 81300 nM
same,GI50,A549 NSCLC,596 nM
same,TGI,A549 NSCLC,17500 nM
